Where only a bound is given, the exact number is not on record here.

The test system of data set [1] is nitric oxide (NO) production from LPS activated J774.2 mouse macrophages. The data set is described as follows: Nitric oxide production (Griess), LPS activated macrophages. It counts as cell-based. The following applies: J774.2 cells, 30 μg/mL LPS, three doses 1, 10, 100 μg/mL, mean ± SD of three, read-out: NO Inhibition (IC50). The method, then:
The mouse macrophage cell line J774.2 (European Collection of Cell Cultures, UK) was cultured in 75 cc flasks IWAKI (Asahi Techno Glass, Japan) in DMEM Sigma-Aldrich (Steinheim, Germany) supplemented with 10% fetal bovine serum GIBCO (New York, USA)1% streptomycin/penicillin. Flasks were kept at 37 °C in atmosphere of humidified air containing 5% CO2, cells were seeded in 96-well plate (10^6 cells/mL) and were induced by 30 μg/mL e. coli lipopolysaccharide (LPS) (DIFCO Laboratories michigon, USA). The test compounds were added at concentrations of (1, 10 and 100 μg/mL) and plate was incubated at 37 °C in 5% CO2. Nitrite accumulation in culture supernatant was measured using the Griess reagents as described previously.
Background: Nitrite, measured by Griess reagent, commonly stands in for NO production.

The subject of data set [2] is Escherichia coli (ATCC 12022). Description: Microplate Alamar Blue Assay, Escherichia coli. The format is cell-based. The following applies: ATCC12022, 200 μg/mL, NI = No inhibition, read-out: Percentage (%) Inhibition, Escherichia coli. The method, then:
(§1) The anti-bacterial activity of synthesized compound were evaluated by the Microplate Alamar Blue Assay. Staphylococcus aureus (ATCC 25923), Pseudomonas aeruginosa(POA 286), Salmonella typhi (ATCC 14028), Bacillus subtilis ATCC 6633) and Escherichia coli (ATCC 12022) were used in this study as a standard bacterial strains and they were obtained from microbial bank of PCMD, International Center for Chemical and Biological Sciences, University of Karachi, Karachi-75270, Pakistan. The bacterial colonies grown in Trypton Soya Agar (TSA) (Oxoid Limited, UK) were inoculated in Mueller Hinton Broth (MHB) (Oxoid Limited, UK) and incubated overnight at 37 °C. Fully grown bacterial cultures were then diluted to adjust with 0.5 McFarland Turbidity Index (equivalent to 1.5 × 10^8 CFU/mL). Stock solutions (4 mg/mL) of different test compounds were prepared in DMSO and 10μL each of these stock solutions were placed in well of flat bottom, polystyrene, sterile 96-wells plate except the positive control wells (media + bacteria). This gives 200μg/mL concentrations of compounds in final 200 μL solution. Each compound was run in triplicates. Finally, bacterial suspension (5 x 10^6 CFU/mL) was added in each well. Plates were sealed by parafilm and incubated at 37 °C for 18–22 hrs. Next day, 20 μL of 0.02% resazurin sodium salt dye (Chem-Impex-Int’LInc) was added in each well and incubated in shaking incubator at 80 rpm, 37 °C for 2–3 hrs. The color change from blue to reddish pink indicates the growth of bacteria. For quantitative analysis, plates were read at 570 nm and 600 nm in Multiskan GOmicroplate spectrophotometer, (Thermo Scientific, USA). The % inhibition of bacterial growth was calculated using below mentioned formula.
(§2) For the calculation of the % difference in reduction between treated and control cells in cytotoxicity/proliferation assays: =(εOX)λ2Aλ1-(εOX)λ1Aλ2oftestagent/(εOX)λ2A°λ1-(εOX)λ1A°λ2ofpositivegrowthcontrol×100
(In general: Alamar Blue is a resazurin reagent that responds to reducing activity.)

Another data set can be described thus: MTT cytotoxicity assay. It counts as cell-based, mouse. The following applies: mouse; MTT, 48 hours; read-out: Cytotoxicity NIH-3T3 cell line (IC50). The method, then: The cytotoxicity was recorded as concentration causing 50% growth inhibition (IC50).
For data set [3], the system named is Salmonella typhi (ATCC 14028). The data set is described as follows: Microplate Alamar Blue Assay, Salmonella typhi. It counts as cell-based. The settings on record: Salmonella enterica; 200 μg/mL; NI = No inhibition; read-out: Percentage (%) Inhibition, Slamonella typhi. The method, then:
as §1, §2

The subject of data set [4] is Bacillus subtilis (ATCC 6633). Description: Microplate Alamar Blue Assay, Bacillus subtilis. It counts as cell-based. The settings on record: ATCC6633, 200 μg/mL, NI = No inhibition, read-out: Percentage (%) Inhibition, Bacillus subtilis. The method, then: as §1, §2
In data set [5] the test system is Pseudomonas aeruginosa (POA 286). The data set is described as follows: Microplate Alamar Blue Assay, Pseudomonas aeruginosa. It counts as cell-based. The settings on record: Pseudomonas aeruginosa; 200 μg/mL; NI = No inhibition; read-out: Percentage (%) Inhibition, Pseudomonas aerugenosa. The method, then:
as §1, §2

In data set [6] the test system is Staphylococcus aureus (ATCC 25923). The data set is described as follows: Microplate Alamar Blue Assay, Staphylococcus aureus. It counts as cell-based. The settings on record: Staphylococcus aureus, ATCC25923; 200 μg/mL; NI = No inhibition; read-out: Percentage (%) Inhibition, Staphylococcus aureus. The method, then: as §1, §2
The test system of data set [7] is zymosan activated whole blood phagocytes. The data set is described as follows: Oxidative burst assay (luminol-enhanced chemiluminescence), whole blood. The settings on record: human whole blood, serum opsonized zymosan, three doses 1, 10, 100 μg/mL, mean ± SD of three, NA = Not active, read-out: Oxidative Burst Inhibition (IC50) WB. It counts as cell-based. The method, then: (§3) Luminol-enhanced chemiluminescence assay was performed, as described by Helfandet al., 1982 [17], with some modifications. Briefly 25 μL of diluted whole blood in HBSS^++ (Hanks Balanced Salt Solution, containing calcium chloride and magnesium chloride) [Sigma, St. Louis, USA] was incubated with 25 μL of three different concentrations of compounds (1, 10, and 100 μg/mL), each in triplicate. Control wells received HBSS^++ and cells, but no compounds. Test was performed in white half area 96-well plates [Costar, NY, USA], which was incubated at 37 °C for 15 minutes in the thermostat chamber of luminometer [Labsystems, Helsinki, Finland]. After incubation, 25 μL of serum opsonized zymosan (SOZ) [Fluka, Buchs, Switzerland] and 25 μL of intracellular reactive oxygen species detecting probe, luminol [Research Organics, Cleveland, OH, USA] were added into each well, except blank wells (containing only HBSS^++). The level of the ROS was recorded in luminometer in term of relative light units (RLU).

The subject of data set [8] is isolated polymorphonuclear neutrophils (PMNs). The data set is described as follows: Oxidative burst assay (luminol-enhanced chemiluminescence), isolated PMNs. The format is cell-based. The settings on record: Polymorphonuclear neutrophil, isolated human PMNs, zymosan, three doses 1, 10, 100 μg/mL, mean ± SD of three, read-out: Oxidative Burst Inhibition (IC50) PMNs.
Source text: Heparinized blood was obtained by vein puncture aseptically from healthy volunteers. The PMNs were isolated by ficoll-Hypaque density gradient method. The cells were isolated after centrifugation from the tube base. Cells were washed twice and suspended in Hank’s Balance salt solution (HBSS^--) (Ca^2+ and Mg^2+ free), RBCs were lysed using hypotonic solution. Cells were adjusted to their required concentration (1x10^6 cells/mL) using HBSS^++containing Ca^2+ and Mg^2+.
as §3

Data set [9] has as its system TNF-α production from THP-1 human monocytic leukemia cell line. The data set is described as follows: TNF-α production (ELISA), LPS stimulated THP-1 cells. It counts as cell-based. The following applies: PMA-differentiated THP-1 cells, 50 ng/mL LPS, 4 hours; three doses 1, 10, 100 μg/mL; mean ± SD of three. From the text: RPMI-1640 (R8758, Sigma Aldrich, St. Louis, USA); L-glutamine (25030081, Gibco, California, USA); D-glucose (G8270, Sigma Aldrich, St. Louis, USA); 2-mercaptoethanol (190242, MP Biomedicals, lllkirch, France); sodium pyruvate (11360–070, Gibco, California, USA); FBS (A11-104, PAA Laboratories, Pasching, Austria); HEPES (H3375, Sigma Aldrich, St. Louis, USA); PMA (151864, MP Biomedicals, lllkirch, France); lipopolysaccharide B of E. coli 0111:B4 (LPS) (3922–25, DIFCO Laboratories, USA); 24-well tissue culture plates (CLS3524, Corning, Dublin, USA); Flat bottom 96-well tissue culture plates (CLS3300, Corning, New York, USA). BSA (151429, MP Biomedicals, lllkirch, France); PBS tablets (41620016–4, Bioworld, Dublin, Ireland); Tween 20 (822184, Merck, Damstadt, Germany); Human TNF-α DuoSet ELISA Kit (DY210, R&D Systems, Minneapolis, USA); Human IL-1β DuoSet ELISA Kit (DY201, R&D Systems, Minneapolis, USA); and Human IL-2 DuoSet ELISA Kit (DY202, R&D Systems, Minneapolis, USA); ELISA plate sealers (DY992, R&D Systems, Minneapolis, USA); Clear flat bottom 96-well microplates (DY990, R&D Systems, Minneapolis, USA). Human monocytic leukemia cells THP-1 were obtained from (European Collection of Cell Cultures, UK). The cells were maintained in RPMI-1640 containing 5.5 mmol/L glucose (BioM Laboratories, Chemical Division, Malaysia), 50 μmol/L mercaptoethanol (Merck Damstadt, Germany), 10% FBS (fetal bovine serum), 2 mmol/L; L-glutamine (PAA Laboratories, GmbH, Pasching, Austria). Cells were grown in 75 cc flasks, harvested and 2.5×10^5 cells/mL was then plated in 24-well tissue culture plates. 20 ng/mL of phorbol-12-myristate-13-acetate (PMA), (SERVA, Heidelberg, Germany) was added followed by incubation for 24 hours at 37 °C in 5% CO2to convert them into macrophage like cell. Cells were then stimulated with E. coli lipopolysacchride B, (DIFCO Laboratories, michigon, USA) at a final concentration of 50 ng/mL and treated with compounds at three different concentration (1, 10 and 100 μg/mL) and then incubated for 4 hours at 37 °C in 5% CO2. The supernatants collected were analyzed for the level of TNF -α using the human TNF-α Duo Set ELISA (R&D Systems, Minneapolis, USA), and according to manufacturer’s instructions.
A general note: In an ELISA, binding on a coated surface is turned into a signal by an enzyme label.

Consider `[H]/N=C(/NC)NCCC[C@H](N)C(=O)O` [41 (L-NMMA), NG monomethyl L-arginine acetate, reference compound], for which, in data set [1], the concentration for half-maximal inhibition (IC50) (commonly the point on the concentration scale where inhibition reaches its midpoint) turned out to be 24.2 ± 0.6 µg/mL.
As for `Cc1cc(C)nc(NS(=O)(=O)c2ccc(NC(=O)c3ccc(F)c(F)c3)cc2)n1` [Compound 18, N-(4-(N-(4,6-dimethylpyrimidin-2-yl)sulfamoyl)phenyl)-3,4-difluorobenzamide], the inhibition (in general, how much of the control response was suppressed) at 200 µg/mL in data set [2] is < 0%; in [3] it was 22.5%; in data set [4], < 0%; in [5] it was < 0%; in [6] it was 49.7%. Also, in “MTT cytotoxicity assay”, the half-inhibitory concentration (IC50) is > 30 µM.
For the compound `Cc1ccc(C(=O)Nc2ccc(S(=O)(=O)Nc3nc(C)cc(C)n3)cc2)cc1` [Compound 34, N-(4-(N-(4,6-dimethylpyrimidin-2-yl)sulfamoyl)phenyl)-4-methylbenzamide], the inhibition at 200 µg/mL was < 0% in [2]; 0.65% in [3]; < 0% in data set [4]; 15.4% in [5]; < 0% in [6]. The IC50 in “MTT cytotoxicity assay” is > 30 µM.
For `Cc1cc(C)nc(NS(=O)(=O)c2ccc(NC(=O)c3cccc(Br)c3)cc2)n1` [Compound 30, 3-Bromo-N-(4-(N-(4,6-dimethylpyrimidin-2-yl)sulfamoyl)phenyl)benzamide], the inhibition at 200 µg/mL is < 0% in [2]; 4.26% in data set [3]; < 0% in [4]; < 0% in [5]; 34.2% in data set [6]. Also, the half-maximal inhibitory concentration (IC50) in “MTT cytotoxicity assay” was > 30 µM.
For `CC(C)Cc1ccc(C(C)C(=O)O)cc1` (stereo not shown) [40 (Ibuprofen), Ibuprofen, reference compound], the IC50 in data set [7] was 11.2 ± 1.9 µg/mL; in [8], 2.5 ± 0.6 µg/mL.
For `Cc1cc(C)nc(NS(=O)(=O)c2ccc(NC(=O)c3ccccc3)cc2)n1` [Compound 39, N-(4-(N-(4,6-dimethylpyrimidin-2-yl)sulfamoyl)phenyl)benzamide], the inhibition at 200 µg/mL in [2] was 1.84%; in data set [3] it was 12.5%; in data set [4], < 0%; in data set [5], < 0%; in data set [6] it was 41.1%. The IC50 in “MTT cytotoxicity assay” is > 30 µM.
Take `Cc1cc(C)nc(NS(=O)(=O)c2ccc(NC(=O)c3ccc(C(F)(F)F)cc3)cc2)n1` [Compound 19, N-(4-(N-(4,6-dimethylpyrimidin-2-yl)sulfamoyl)phenyl)-4-(trifluoromethyl)benzamide]: the inhibition at 200 µg/mL was < 0% in data set [2]; 0.99% in data set [3]; < 0% in [4]; 2.37% in [5]; 49.4% in [6]. In addition, in the data set “MTT cytotoxicity assay”, the IC50 is > 30 µM.
With `Cc1cc(C)nc(NS(=O)(=O)c2ccc(NC(=O)c3cccc(Cl)c3)cc2)n1` [Compound 21, 3-chloro-N-(4-(N-(4,6-dimethylpyrimidin-2-yl)sulfamoyl)phenyl)benzamide], the inhibition at 200 µg/mL in data set [2] was < 0%; in data set [3], 14.6%; in data set [4], < 0%; in data set [5] it was 28%; in data set [6] it was 54.6%. The IC50 in the data set “MTT cytotoxicity assay” is > 30 µM.
With `CC(=O)CCCCn1c(=O)c2c(ncn2C)n(C)c1=O` [42 (Pentoxifillin), Pentoxifillin, reference compound], the “TNF-α Inhibition (IC50)” value in data set [9] is 94.8 ± 2.1 µg/mL.
On to `Cc1cc(C)nc(NS(=O)(=O)c2ccc(NC(=O)c3ccccc3Br)cc2)n1` [Compound 28, 2-Bromo-N-(4-(N-(4,6-dimethylpyrimidin-2-yl)sulfamoyl)phenyl)benzamide], for which the inhibition at 200 µg/mL in [2] is 4.65%; in [3], 11.1%; in data set [4], < 0%; in data set [5], 3.99%; in data set [6] it was 58.5%. Moreover, in “MTT cytotoxicity assay”, the IC50 was > 30 µM.
